Test results taken from publication PMC11962085, “Molecular mechanisms of urate transport by the native human URAT1 and its inhibition by anti-gout drugs” (Cell Discovery, 2025).
Substitutions are numbered along the chain they refer to.

Assays:
[1] = molecular target: T1, hURAT1 R477K (Homo sapiens, UniProt Q96S37, R477K); experiment: 14C-urate uptake inhibition assay, hURAT1 R477K mutant in HEK293 cells; type: cell-based; details: for IC50: R477K hURAT1, HEK293 cells, 14C-urate uptake, n=3-8, read-out: pIC50 (Mean ± SEM) (converted)
T1 construct: Flag; expressed in transfected cells; host or cells: HEK293
T1 sequence (Q96S37 1-553 R477K): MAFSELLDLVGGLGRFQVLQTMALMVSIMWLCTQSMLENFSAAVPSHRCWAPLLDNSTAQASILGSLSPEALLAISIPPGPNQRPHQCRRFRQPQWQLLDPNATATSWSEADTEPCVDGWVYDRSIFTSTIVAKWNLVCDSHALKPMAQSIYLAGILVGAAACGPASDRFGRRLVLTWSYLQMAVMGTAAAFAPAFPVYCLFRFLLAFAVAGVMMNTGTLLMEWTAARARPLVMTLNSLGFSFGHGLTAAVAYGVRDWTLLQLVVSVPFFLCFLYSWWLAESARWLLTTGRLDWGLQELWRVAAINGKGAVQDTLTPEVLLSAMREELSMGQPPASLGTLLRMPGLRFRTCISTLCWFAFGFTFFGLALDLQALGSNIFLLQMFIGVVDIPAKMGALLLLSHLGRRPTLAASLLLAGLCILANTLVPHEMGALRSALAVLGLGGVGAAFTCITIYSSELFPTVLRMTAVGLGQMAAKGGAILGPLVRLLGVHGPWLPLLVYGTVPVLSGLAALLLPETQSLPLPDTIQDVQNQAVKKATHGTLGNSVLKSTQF
Procedure: (§1) The cells were seeded at a density of 30,000 cells per well in Isoplate-96 plates (Perkin Elmer).

[2] = molecular target: T2, hURAT1 F449A (Homo sapiens, UniProt Q96S37, F449A); experiment: 14C-urate uptake inhibition assay, hURAT1 F449A mutant in HEK293 cells; type: cell-based
T2 construct: Flag; expressed in transfected cells; host or cells: HEK293
T2 sequence (Q96S37 1-553 F449A): T1 sequence (Q96S37 1-553 R477K) with F449A, K477R
Procedure: as §1

[3] = molecular target: T3, hURAT1 F360A (Homo sapiens, UniProt Q96S37, F360A); experiment: 14C-urate uptake inhibition assay, hURAT1 F360A mutant in HEK293 cells; type: cell-based; details: for effect of alanine substitution at F360 on inhibition: F360A vs wild-type URAT1, in words; for IC50: F360A hURAT1, HEK293 cells, 14C-urate uptake, n=3-8, read-out: pIC50 (Mean ± SEM) (converted)
T3 construct: Flag; expressed in transfected cells; host or cells: HEK293
T3 sequence (Q96S37 1-553 F360A): T1 sequence (Q96S37 1-553 R477K) with F360A, K477R
Procedure: as §1

[4] = molecular target: T4, hURAT1 F364Y-F365Y (Homo sapiens, UniProt Q96S37, F364Y/F365Y); experiment: 14C-urate uptake inhibition assay, hURAT1 F364Y-F365Y mutant in HEK293 cells; type: cell-based; details: for IC50: F364Y-F365Y hURAT1, HEK293 cells, 14C-urate uptake, n=3-8, N.A., not active, read-out: pIC50 (Mean ± SEM) (converted)
T4 construct: Flag; expressed in transfected cells; host or cells: HEK293
T4 sequence (Q96S37 1-553 F364Y/F365Y): T1 sequence (Q96S37 1-553 R477K) with F364Y, F365Y, K477R
Procedure: as §1

[5] = set-up: method as in PMID 26378978, PMID 30415602; details: high-risk patients; cited from earlier work

SMILES | IC50 [4] [nM] | IC50 [1] [nM] | IC50 [3] [nM] | effect of alanine substitution at F360 on inhibition [3] | other results
CCc1oc2ccccc2c1C(=O)c1cc(Br)c(O)c(Br)c1 [benzbromarone] | – | – | – | significantly diminish the inhibitory effectiveness | effect of mutation of R477 to lysine on potency ([1]; R477K vs wild-type URAT1, in words): slightly reduced the potency; effect of alanine substitution at F449 on inhibition ([2]; F449A vs wild-type URAT1, in words): significantly diminish the inhibitory effectiveness
O=C(c1cc(Cl)c(O)c(Cl)c1)N1CS(=O)(=O)c2ccccc21 [dotinurad] | 123 | 22.9 | 3160 | markedly reduces the effectiveness | –
O=C(O)CSc1nnc(Br)n1-c1ccc(C2CC2)c2ccccc12 [lesinurad] | – | – | – | – | effect of changing F364 and F365 to tyrosine on inhibition ([4]; F364Y-F365Y vs wild-type URAT1, in words): nearly abolishes the inhibitory effects
OC[C@H]1O[C@@H](c2ccc(Cl)c(Cc3ccc(O[C@H]4CCOC4)cc3)c2)[C@H](O)[C@@H](O)[C@@H]1O [empagliflozin] | – | – | – | – | relative risk reduction in cardiovascular death [5]: 38%
CC(C)(Sc1ccncc1-c1ccc(C#N)c2ccccc12)C(=O)O [verinurad] | 245000 | 513 | 56.2 | – | IC50 ([2]; F449A hURAT1, HEK293 cells, 14C-urate uptake, n=3-8, read-out: pIC50 (Mean ± SEM) (converted)): 126 nM
